Data as given in patent US12459951B2, “Compounds that interact with RAS superfamily proteins for treatment of cancers, inflammatory diseases, rasopathies, and fibrotic disease” (SHY Therapeutics, LLC, priority 2022, dated 2025).

What was measured:
active/cleaved caspase 3 = assay: Cell-based caspase activation assay (western blot); design: species or system human
Description: (§1) Biological Example 4: Puma Expression and Caspases Activation Assay
(§2) Protocols for Cell-Based Puma Expression and Caspase Activation Assays
(§3) Cell lines: All human tumor-derived cancer cell lines were purchased from American Type Culture Collection. Human tumor-derived cancer cell lines Panc-1 (expressing KRas G12D mutant), MiaPaca-2 (expressing KRas G12C mutant), A549 (expressing KRas G12S mutant), and A375 (expressing wild type KRas) were grown in complete DMEM-High Glucose medium and NCI-H1975 (expressing wild type KRas), MM.1R (expressing wild type KRas) and IM.9 (expressing wild type KRas) were grown in RPMI1640 medium. Human tumor-derived cancer cell line BT-549 (expressing wild type KRas) was grown in RPMI1640 medium with 11.8U insulin. All mediums were supplemented with penicillin (100 U/mL), streptomycin (100 μg/mL), and 10% heat-inactivated FBS at 37° C. in a humidified incubator with 5% CO2.
(§4) Method: Cells were plated at 300,000 to 800,000 cells/well density in a 6-well plate in the presence of 10% FBS. The next day small molecules to be tested were added to the cells in the final concentration of 3 μM in the presence of 0.3% DMSO for 48 hours incubation at 37° C. For IC50 value determination, serial dilutions of compounds were added to cells under the same conditions. Following 48 hours of incubation cells were lysed with lysis buffer containing 1% Triton X-100, EDTA, and Halt™ Protease & Phosphatase Inhibitor Cocktail (Thermo Scientific). Protein concentration was assessed by BCA protein assay (Thermo Scientific). Increase expression of PUMA and active/cleaved forms of caspase 3, caspase 6 and caspase 9 were detected by western blot.
(§5) Western blot protocol: Equal amounts of protein (15-50 μg) were separated by SDS-PAGE and transferred to nitrocellulose membranes (Invitrogen by Thermo Fisher Scientific). The membrane was stained with Ponceau S Stain (Boston BioProducts) to verify uniform protein loading. Membranes were blocked with 10% milk and expression levels of PUMA was assessed by incubating overnight at 4° C. with the antibody PUMA (D30C10) from Cell Signaling Technology (#12450) and active/cleaved forms of caspase 3, caspase 6 and caspase 9 by incubating overnight at 4° C. with the following antibodies: cleaved caspase-3 (Asp175) (5A1E), cleaved caspase-6 (Asp162) and cleaved caspase-9 (Asp330) (D2D4) (all antibodies from Cell Signaling Technology). Then the membranes were incubated with HRP-conjugated secondary antibody (Jackson Immunoresearch, West Grove, PA). Bands were incubated in Amersham ECL Prime Western Blotting Detection Reagent (GE Healthcare) and visualized using the ChemiDoc MP imaging system (Bio-Rad).

active/cleaved caspase 6 = assay: Cell-based caspase activation assay (western blot); design: species or system human
Description: as §1, §2, §3, §4, §5

active/cleaved caspase 9 = assay: Cell-based caspase activation assay (western blot); design: species or system human
Description: as §1, §2, §3, §4, §5

cdc42 = biological target: T1, cdc42 (Homo sapiens, UniProt P60953); assay: Cdc42 GTP Binding Domain Inhibition Assay; conditions: read-out: Cdc42: % inh.
T1 construct: made in house
T1 sequence (P60953 whole entry, the tested form may be a part): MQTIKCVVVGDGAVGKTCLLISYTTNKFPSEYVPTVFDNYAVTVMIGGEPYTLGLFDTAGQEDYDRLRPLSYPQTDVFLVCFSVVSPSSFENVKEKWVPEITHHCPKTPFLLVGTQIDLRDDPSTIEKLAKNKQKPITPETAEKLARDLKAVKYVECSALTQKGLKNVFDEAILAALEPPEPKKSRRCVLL
Description: (§6) Protocol for Cdc42 and Rheb GTP Binding Domain Inhibition Assay
(§7) The following method was developed as specific assay for cdc42 and Rheb proteins.
(§8) • 25 mM Tris-HCl, pH 7.4 • 27 mM KCl • 137 mM NaCl • 1 mM MgCl2 • 1 mM DTT Buffer-II: • 50 mM Tris-HCl, pH 7.0 • 1 mM MgCl2 • 1 mM DTT
(§9) The small GTPases proteins cdc42 and Rheb were expressed as His-tagged proteins. For the assay, the cdc42 and Rheb purified small GTPases proteins were diluted in Buffer-I or Buffer-II to a final concentration of 10-30 μg/mL. 200 μL of each diluted protein was added to a nickel-coated 96-well plate and incubated overnight at […]. Then the protein solution was discarded and 200 μL of Buffer-I or Buffer-II was added to each well in the presence of 1% DMSO. Compounds to be tested were added to the protein-coated wells at final concentration of 20 μM, and incubated for 3 hours at room temperature with and without 10-30 μg/mL of Sos added to the final hour of the incubation. When performing IC50 measurements a serial dilution of all tested concentrations was added. Then Cy3-GTP or Cy5-GTP was added to each well to a final concentration of 100 nM. The labeled GTP was incubated for 45 minutes at room temperature. Following GTP incubation, wells were washed 3× in Buffer-I or Buffer-II and 200 μL of Buffer-I or Buffer-II was added to each well. Following washes, the amount of bound labeled-GTP was measured using a SpectraMax M3 (Molecular Devices).

Rheb = biological target: T2, Rheb (Homo sapiens, UniProt Q15382); assay: Rheb GTP Binding Domain Inhibition Assay; conditions: read-out: Rheb: % inh.
T2 construct: made in house
T2 sequence (Q15382 whole entry, the tested form may be a part): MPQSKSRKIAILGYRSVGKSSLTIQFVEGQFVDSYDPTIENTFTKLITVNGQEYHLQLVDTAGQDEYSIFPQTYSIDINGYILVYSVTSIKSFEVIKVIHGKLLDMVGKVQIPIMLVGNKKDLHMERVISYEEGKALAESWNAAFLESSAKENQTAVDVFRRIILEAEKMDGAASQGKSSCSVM
Description: as §6, §7, §8, §9

Compound | Caspase 3 activation (active/cleaved caspase 3; A375, after 48 hours) | Caspase 3 activation (active/cleaved caspase 3; A549, after 48 hours) | Caspase 3 activation (active/cleaved caspase 3; MiaPaca2, after 48 hours) | Caspase 6 activation (active/cleaved caspase 6; A375, after 48 hours) | Caspase 6 activation (active/cleaved caspase 6; A549, after 48 hours) | Caspase 6 activation (active/cleaved caspase 6; MiaPaca2, after 48 hours) | Caspase 9 activation (active/cleaved caspase 9; A375, after 48 hours) | Caspase 9 activation (active/cleaved caspase 9; A549, after 48 hours) | Caspase 9 activation (active/cleaved caspase 9; MiaPaca2, after 48 hours) | Caspase 3 activation (active/cleaved caspase 3; BT-549, after 48 hours) | Caspase 6 activation (active/cleaved caspase 6; BT-549, after 48 hours) | Caspase 9 activation (active/cleaved caspase 9; BT-549, after 48 hours) | inhibition at 20 µM (cdc42) [%] | inhibition at 20 µM (Rheb) [%] | further results
COc1ccnc(Nc2nc(-c3nccn3C)nn3cc(-c4ccn(C)n4)c(C)c23)c1 [Compound 102, N-(4-Methoxypyridin-2-yl)-5-methyl-2-(1-methyl-1H-imidazol-2-yl)-6-(1-methyl-1H-pyrazol-3-yl)pyrrolo[2,1-f][1,2,4]triazin-4-amine] | yes | yes | yes | yes | yes | yes | yes | yes | yes |  |  |  |  |  | Caspase 3 activation (active/cleaved caspase 3; IM.9, after 48 hours): yes; Caspase 3 activation (active/cleaved caspase 3; MM.1R, after 48 hours): yes; Caspase 3 activation (active/cleaved caspase 3; NCI-H1975, after 48 hours): yes; Caspase 6 activation (active/cleaved caspase 6; IM.9, after 48 hours): yes; Caspase 6 activation (active/cleaved caspase 6; MM.1R, after 48 hours): yes; Caspase 6 activation (active/cleaved caspase 6; NCI-H1975, after 48 hours): yes; Caspase 9 activation (active/cleaved caspase 9; IM.9, after 48 hours): yes; Caspase 9 activation (active/cleaved caspase 9; MM.1R, after 48 hours): yes; Caspase 9 activation (active/cleaved caspase 9; NCI-H1975, after 48 hours): yes
Cc1c(-c2ccn(C)n2)cn2nc(-c3nccn3C)nc(Nc3cc4n(n3)CCO4)c12 [Compound 124, N-(5-Methyl-2-(1-methyl-1H-imidazol-2-yl)-6-(1-methyl-1H-pyrazol-3-yl)pyrrolo[2,1-f][1,2,4]triazin-4-yl)-2,3-dihydropyrazolo[5,1-b]oxazol-6-amine] | yes |  | yes | yes |  | yes | yes |  | yes | yes | yes | yes |  |  | Caspase 3 activation (active/cleaved caspase 3; HCC1806, after 48 hours): yes; Caspase 3 activation (active/cleaved caspase 3; NCI-H358, after 48 hours): yes; Caspase 6 activation (active/cleaved caspase 6; HCC1806, after 48 hours): yes; Caspase 6 activation (active/cleaved caspase 6; NCI-H358, after 48 hours): yes
COc1cc(Nc2nc(-c3nccn3C)nn3cc(-c4ccn(C(C)C)n4)c(C)c23)ncn1 [Compound 6, 6-(1-Isopropyl-1H-pyrazol-3-yl)-N-(6-methoxypyrimidin-4-yl)-5-methyl-2-(1-methyl-1H-imidazol-2-yl)pyrrolo[2,1-f][1,2,4]triazin-4-amine] | yes | yes | yes | yes | yes | yes | yes | yes | yes | yes | yes | yes | 50 to 75 | 76 to 100 | Caspase 3 activation (active/cleaved caspase 3; Panc-1, after 48 hours): yes; Caspase 6 activation (active/cleaved caspase 6; Panc-1, after 48 hours): yes
COc1cc(Nc2nc(-c3nccn3C)nn3cc(-c4ccccn4)c(C)c23)ncn1 [Compound 94, N-(6-Methoxypyrimidin-4-yl)-5-methyl-2-(1-methyl-1H-imidazol-2-yl)-6-(pyridin-2-yl)pyrrolo[2,1-f][1,2,4]triazin-4-amine] |  |  |  |  |  |  |  |  |  |  |  |  | 26 to 49 | 26 to 49 | 
COc1ccnc(Nc2nc(-c3nccn3C)nn3cc(-c4ccn(C(F)F)n4)c(C)c23)n1 [Compound 95, 6-(1-(Difluoromethyl)-1H-pyrazol-3-yl)-N-(4-methoxypyrimidin-2-yl)-5-methyl-2-(1-methyl-1H-imidazol-2-yl)pyrrolo[2,1-f][1,2,4]triazin-4-amine] |  |  |  |  |  |  |  |  |  |  |  |  | 50 to 75 | 50 to 75 | 
Cc1c(-c2ccn(C(C)C)n2)cn2nc(-c3nccn3C)nc(Nc3nccn3C)c12 [Compound 93, 6-(1-Isopropyl-1H-pyrazol-3-yl)-5-methyl-N,2-bis(1-methyl-1H-imidazol-2-yl)pyrrolo[2,1-f][1,2,4]triazin-4-amine] |  |  |  |  |  |  |  |  |  |  |  |  | 76 to 100 | 76 to 100 | 
